Experiments:
[1] = test system: four non-smoking volunteers (2 men and 2 women); experiment: Taste identification questionnaire, trained panel (count of 6 repetitions per subject in which the stimulus was given each taste label; level of recognition %); assay type: in vivo, human; conditions: for Level of Recognition %: Bitter / Level of Recognition %: Neutral / Level of Recognition %: Salty / Level of Recognition %: Sour / Level of Recognition %: Sweet: four subjects
Method: (§1) In this test, four non-smoking volunteers (2 men and 2 women) were chosen from 12 people for their performance in taste recognition. Their mean age was 32 years, ranging from 24 to 40 years. […] These four people were trained for several months to recognize and detect the four basic tastes, and also regarding the procedures of sensory and physiological analysis.
(§2) The four basic tastes (sweet, salty, sour and bitter) were used. The solutions were prepared with citric acid for the sour taste, caffeine for the bitter taste, sodium chloride for the salty taste and sucrose for the sweet taste (all purchased from Sigma Aldrich, France) in Evian water. Evian water was also used as control and blank. Each taste was prepared with the four concentrations mentioned in table 1.
(§3) The amount of solution to be tested was standardized at 10 ml. In order to impregnate the whole of the oral cavity, the subjects kept the solution in their mouth for 5 s before swallowing it.
(§4) The sessions were individual and the subjects were asked not to eat or drink anything for at least 1 h before the test. They arrived 15 min before the start of the session in order to acclimatize to the environmental conditions, in particular the temperature of the room (kept constant at 23° C.) and to be resting seated on a comfortable chair. The 16 solutions for testing and two additional samples of water containing solely Evian water, added to the references, were presented monadically following a test order determined from a “balanced incomplete block design”. During a session, 9 samples out of 18 were presented to minimize sensory fatigue. In addition, a sample of Evian was always tested as a “blank” sample in order to avoid the first-order effect (Lawless, H. T. & Heymann, H., 2010, Sensory evaluation of food: Principles and practices. Springer, New York) and was excluded from the analysis. A light signal was sent to give the instruction to test the sample. When the disturbance to the nervous system returned to its baseline level (after approximately 1 min), a second light signal indicated to the subjects that they should complete a questionnaire regarding the stimulus tested previously. The first part of the questionnaire was linked to the identification of the taste (i.e. determining the quality of the taste); the subjects had to choose between five labels: sweet, salty, sour, bitter or neutral. They then had to assign a taste intensity score on an 11-point scale (from 0 “not intense” (i.e. taste of Evian only) to 10 “very intense”) and finally to give a hedonic score on an 11-point scale (from 0 “very unpleasant” to 10 “very pleasant”, 5 being “neutral”).
(§5) This procedure was repeated for each of the 9 stimuli. A session lasted approximately 45 min including a debriefing at the end of the test to ensure understanding of the sense of the signal variations. The experiment was repeated 12 times per subject, meaning that the data are composed of 6 data sets per subject and per product and 12 data sets for the Evian product per subject. Thus, the database consists of 432 samples.

[2] = test system: four non-smoking volunteers (2 men and 2 women); experiment: Taste intensity score, 11-point scale (0 not intense to 10 very intense); assay type: in vivo, human; conditions: averaged over 4 subjects, 6 repetitions each
Method: as §1, §2, §3, §4, §5
The effect of the taste on the hedonic and intensity scores was analyzed by an analysis of variance (ANOVA) including the product effect, the subject effect and the product-subject interaction. The subject effect was fixed because there were only 4 subjects and the results could only be applied to a particular schema. The differences were considered to be significant at a level of 0.05.

[3] = cited from earlier work

O=C(O)CC(O)(CC(=O)O)C(=O)O [Citric acid, citric acid]
Individual recognition score: Bitter ([1]; Subject 1, dilution 1): 1
Individual recognition score: Neutral ([1]; Subject 1, dilution 1): 3
Individual recognition score: Salty ([1]; Subject 1, dilution 1): 0
Individual recognition score: Sour ([1]; Subject 1, dilution 1): 1
Individual recognition score: Sweet ([1]; Subject 1, dilution 1): 1
Individual recognition score: Bitter ([1]; Subject 1, dilution 2): 1
Individual recognition score: Neutral ([1]; Subject 1, dilution 2): 4
Individual recognition score: Salty ([1]; Subject 1, dilution 2): 0
Individual recognition score: Sour ([1]; Subject 1, dilution 2): 1
Individual recognition score: Sweet ([1]; Subject 1, dilution 2): 0
Individual recognition score: Bitter ([1]; Subject 1, dilution 3): 0
Individual recognition score: Neutral ([1]; Subject 1, dilution 3): 0
Individual recognition score: Salty ([1]; Subject 1, dilution 3): 0
Individual recognition score: Sour ([1]; Subject 1, dilution 3): 6
Individual recognition score: Sweet ([1]; Subject 1, dilution 3): 0
Individual recognition score: Bitter ([1]; Subject 1, dilution 4): 0
Individual recognition score: Neutral ([1]; Subject 1, dilution 4): 0
Individual recognition score: Salty ([1]; Subject 1, dilution 4): 0
Individual recognition score: Sour ([1]; Subject 1, dilution 4): 6
Individual recognition score: Sweet ([1]; Subject 1, dilution 4): 0
Individual recognition score: Bitter ([1]; Subject 2, dilution 1): 0
Individual recognition score: Neutral ([1]; Subject 2, dilution 1): 5
Individual recognition score: Salty ([1]; Subject 2, dilution 1): 0
Individual recognition score: Sour ([1]; Subject 2, dilution 1): 0
Individual recognition score: Sweet ([1]; Subject 2, dilution 1): 1
Individual recognition score: Bitter ([1]; Subject 2, dilution 2): 0
Individual recognition score: Neutral ([1]; Subject 2, dilution 2): 3
Individual recognition score: Salty ([1]; Subject 2, dilution 2): 0
Individual recognition score: Sour ([1]; Subject 2, dilution 2): 2
Individual recognition score: Sweet ([1]; Subject 2, dilution 2): 1
Individual recognition score: Bitter ([1]; Subject 2, dilution 3): 0
Individual recognition score: Neutral ([1]; Subject 2, dilution 3): 0
Individual recognition score: Salty ([1]; Subject 2, dilution 3): 0
Individual recognition score: Sour ([1]; Subject 2, dilution 3): 6
Individual recognition score: Sweet ([1]; Subject 2, dilution 3): 0
Individual recognition score: Bitter ([1]; Subject 2, dilution 4): 0
Individual recognition score: Neutral ([1]; Subject 2, dilution 4): 0
Individual recognition score: Salty ([1]; Subject 2, dilution 4): 0
Individual recognition score: Sour ([1]; Subject 2, dilution 4): 6
Individual recognition score: Sweet ([1]; Subject 2, dilution 4): 0
Individual recognition score: Bitter ([1]; Subject 3, dilution 1): 2
Individual recognition score: Neutral ([1]; Subject 3, dilution 1): 3
Individual recognition score: Salty ([1]; Subject 3, dilution 1): 0
Individual recognition score: Sour ([1]; Subject 3, dilution 1): 1
Individual recognition score: Sweet ([1]; Subject 3, dilution 1): 0
Individual recognition score: Bitter ([1]; Subject 3, dilution 2): 4
Individual recognition score: Neutral ([1]; Subject 3, dilution 2): 1
Individual recognition score: Salty ([1]; Subject 3, dilution 2): 0
Individual recognition score: Sour ([1]; Subject 3, dilution 2): 1
Individual recognition score: Sweet ([1]; Subject 3, dilution 2): 0
Individual recognition score: Bitter ([1]; Subject 3, dilution 3): 0
Individual recognition score: Neutral ([1]; Subject 3, dilution 3): 0
Individual recognition score: Salty ([1]; Subject 3, dilution 3): 0
Individual recognition score: Sour ([1]; Subject 3, dilution 3): 6
Individual recognition score: Sweet ([1]; Subject 3, dilution 3): 0
Individual recognition score: Bitter ([1]; Subject 3, dilution 4): 0
Individual recognition score: Neutral ([1]; Subject 3, dilution 4): 0
Individual recognition score: Salty ([1]; Subject 3, dilution 4): 0
Individual recognition score: Sour ([1]; Subject 3, dilution 4): 6
Individual recognition score: Sweet ([1]; Subject 3, dilution 4): 0
Individual recognition score: Bitter ([1]; Subject 4, dilution 1): 3
Individual recognition score: Neutral ([1]; Subject 4, dilution 1): 2
Individual recognition score: Salty ([1]; Subject 4, dilution 1): 0
Individual recognition score: Sour ([1]; Subject 4, dilution 1): 1
Individual recognition score: Sweet ([1]; Subject 4, dilution 1): 0
Individual recognition score: Bitter ([1]; Subject 4, dilution 2): 1
Individual recognition score: Neutral ([1]; Subject 4, dilution 2): 1
Individual recognition score: Salty ([1]; Subject 4, dilution 2): 0
Individual recognition score: Sour ([1]; Subject 4, dilution 2): 4
Individual recognition score: Sweet ([1]; Subject 4, dilution 2): 0
Individual recognition score: Bitter ([1]; Subject 4, dilution 3): 0
Individual recognition score: Neutral ([1]; Subject 4, dilution 3): 0
Individual recognition score: Salty ([1]; Subject 4, dilution 3): 0
Individual recognition score: Sour ([1]; Subject 4, dilution 3): 6
Individual recognition score: Sweet ([1]; Subject 4, dilution 3): 0
Individual recognition score: Bitter ([1]; Subject 4, dilution 4): 0
Individual recognition score: Neutral ([1]; Subject 4, dilution 4): 0
Individual recognition score: Salty ([1]; Subject 4, dilution 4): 0
Individual recognition score: Sour ([1]; Subject 4, dilution 4): 6
Individual recognition score: Sweet ([1]; Subject 4, dilution 4): 0
Level of Recognition %: Bitter ([1]; dilution 1): 25%
Level of Recognition %: Neutral ([1]; dilution 1): 54%
Level of Recognition %: Salty ([1]; dilution 1): 0%
Level of Recognition %: Sour ([1]; dilution 1): 13%
Level of Recognition %: Sweet ([1]; dilution 1): 8%
Level of Recognition %: Bitter ([1]; dilution 2): 25%
Level of Recognition %: Neutral ([1]; dilution 2): 38%
Level of Recognition %: Salty ([1]; dilution 2): 0%
Level of Recognition %: Sour ([1]; dilution 2): 33%
Level of Recognition %: Sweet ([1]; dilution 2): 4%
Level of Recognition %: Bitter ([1]; dilution 3): 0%
Level of Recognition %: Neutral ([1]; dilution 3): 0%
Level of Recognition %: Salty ([1]; dilution 3): 0%
Level of Recognition %: Sour ([1]; dilution 3): 100%
Level of Recognition %: Sweet ([1]; dilution 3): 0%
Level of Recognition %: Bitter ([1]; dilution 4): 0%
Level of Recognition %: Neutral ([1]; dilution 4): 0%
Level of Recognition %: Salty ([1]; dilution 4): 0%
Level of Recognition %: Sour ([1]; dilution 4): 100%
Level of Recognition %: Sweet ([1]; dilution 4): 0%
intensity score ([2]; concentration 1): 1.2±1.5
intensity score ([2]; concentration 2): 1.0±1.0
intensity score ([2]; concentration 4): 8.4±1.2
detection threshold concentration of the basic taste ([3]; literature (Purves 2005; Robinson 2005)): approximately 2 mmol·l^−1
detection threshold ([3]; representative compound of a primary taste): 0.384 to 0.5 g/L

From patent US20180188224A1, “METHOD FOR CONSTRUCTING A SENSORY SPACE” (CENTRE SCIENTIFIQUE ET TECHNIQUE DU BATIMENT (CSTB), priority 2015, published 2018)
